# Where a name gives a salt, the structure may show the parent alone. Read-outs that look alike come from different tables or passages of the source.
# Columns and labels:
# [1] = laser diffraction; for Size of crystals, 10% < / Size of crystals, 50% < / Size of crystals, 90% < / Size of crystals, Mean: quetiapine conc. 20 w-%, ethanol-water 80 w-% (Example 5), 85 w-% (Example 6)
# Method: In examples 5 and 6 the crystal size analysis was performed using laser diffraction analyser (light scattering). Volume cell was 15 ml, optical length 0.6 cm, obscuration about 8 to 12%. Methyl siloxane was used as a dispersant.
Structure (SMILES),"Size of crystals, 10% < [1]","Size of crystals, 50% < [1]","Size of crystals, 90% < [1]","Size of crystals, Mean [1]",90% of the crystals below ([1]; water content of crystallization solvent between 15 to 20 w-%),size of crystals (ratio of alcohol to water 77:22),size of crystals (ratio of alcohol to water 91:9)
"OCCOCCN1CCN(C2=Nc3ccccc3Sc3ccccc32)CC1 [Example 5, quetiapine hemifumarate]",10% < 25 μm,50% < 83 μm,90% < 244 μm,Mean: 108 μm,,,
"OCCOCCN1CCN(C2=Nc3ccccc3Sc3ccccc32)CC1 [Example 6, quetiapine hemifumarate]",10% < 14 μm,50% < 44 μm,90% < 148 μm,Mean: 60 μm,,,
"OCCOCCN1CCN(C2=Nc3ccccc3Sc3ccccc32)CC1 [quetiapine hemifumarate, 11-(4-[2-(2-hydroxyethoxy)ethyl]-1-piperazinyl]dibenzo[b,f]-1,4-thiazepine hemifumarate (2:1) salt]",,,,,below 244 μm,50-100 microns,10-20 microns

# — US8044038B2 (Fermion Oy, priority 2005, dated 2011)
